Paper PMC8533642 (Journal of medicinal chemistry, 2021)
Square brackets hold non-standard residues; d marks the D form. Peptide text beside a SMILES is read from it. dPhe(4-I) = N[C@H](Cc1ccc(I)cc1)C(=O)O; 2Nal = N[C@@H](Cc1ccc2ccccc2c1)C(=O)O; d2Nal = N[C@H](Cc1ccc2ccccc2c1)C(=O)O

Experiments:
Assay type in all cases: cell-based
mMC3R = mMC3R (Mus musculus, UniProt P33033); assay: AlphaScreen cAMP agonist assay, HEK293 cells stably expressing mMC3R; settings: at 100 μM
mMC1R = mMC1R (Mus musculus, UniProt Q01727); assay: AlphaScreen cAMP agonist assay, HEK293 cells stably expressing mMC1R; settings: for mMC1R partial agonist percentage of receptor activation relative to NDP-MSH: partial agonists; for mMC1R agonist activity in words: full agonist = 90% of maximal NDP-MSH signal
mMC5R = mMC5R (Mus musculus, UniProt P41149); assay: AlphaScreen cAMP agonist assay, HEK293 cells stably expressing mMC5R; settings: for mMC5R percent maximal stimulatory response (compared to NDP-MSH): at 100 μM
Sequence of mMC5R (P41149 whole entry): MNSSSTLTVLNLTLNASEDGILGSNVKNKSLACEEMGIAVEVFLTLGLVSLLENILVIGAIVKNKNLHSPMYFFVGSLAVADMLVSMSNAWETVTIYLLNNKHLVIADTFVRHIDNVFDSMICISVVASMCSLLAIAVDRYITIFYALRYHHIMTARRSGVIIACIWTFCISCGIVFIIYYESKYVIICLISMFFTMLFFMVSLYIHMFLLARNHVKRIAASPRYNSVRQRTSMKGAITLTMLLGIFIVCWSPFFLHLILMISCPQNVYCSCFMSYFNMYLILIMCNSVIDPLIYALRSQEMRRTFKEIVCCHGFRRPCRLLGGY

Sequence of mMC3R (P33033 whole entry): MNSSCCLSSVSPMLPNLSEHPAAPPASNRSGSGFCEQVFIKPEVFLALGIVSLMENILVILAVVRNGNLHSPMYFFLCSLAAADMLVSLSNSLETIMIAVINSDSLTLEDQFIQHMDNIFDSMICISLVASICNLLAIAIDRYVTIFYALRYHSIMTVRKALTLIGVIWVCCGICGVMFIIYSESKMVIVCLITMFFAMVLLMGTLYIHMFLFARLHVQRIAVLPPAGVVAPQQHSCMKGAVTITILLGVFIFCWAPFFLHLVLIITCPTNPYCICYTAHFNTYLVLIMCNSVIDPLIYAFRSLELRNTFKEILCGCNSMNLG
Sequence of mMC1R (Q01727 whole entry): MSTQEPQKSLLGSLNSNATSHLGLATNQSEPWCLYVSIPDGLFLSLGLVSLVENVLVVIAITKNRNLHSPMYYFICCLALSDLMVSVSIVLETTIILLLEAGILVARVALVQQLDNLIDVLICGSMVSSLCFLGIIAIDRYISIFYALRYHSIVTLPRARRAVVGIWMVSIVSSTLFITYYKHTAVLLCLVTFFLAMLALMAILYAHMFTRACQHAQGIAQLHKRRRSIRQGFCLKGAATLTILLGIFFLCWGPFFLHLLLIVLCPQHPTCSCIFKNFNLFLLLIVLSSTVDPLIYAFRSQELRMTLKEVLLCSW

Row | SMILES | mMC3R percent maximal stimulatory response (compared to NDP-MSH) (mMC3R) [% @100μM] | other results
1 | CC(=O)N[C@H](Cc1ccc2ccccc2c1)C(=O)N[C@H](Cc1ccc2ccccc2c1)C(=O)N[C@H](Cc1ccc2ccccc2c1)C(=O)N[C@@H](CCCNC(=N)N)C(N)=O [Peptide 3, Ac-DNal(2’)-DNal(2’)-DNal(2’)-Arg-NH2] | 35 | –
2 | CC(=O)N[C@H](Cc1ccc2ccccc2c1)C(=O)N[C@H](Cc1ccc2ccccc2c1)C(=O)N[C@@H](Cc1c[nH]c2ccccc12)C(=O)N[C@@H](CCCNC(=N)N)C(N)=O [Peptide 6, Ac-DNal(2’)-DNal(2’)-Trp-Arg-NH2] (Ac-[d2Nal][d2Nal]WR-NH2) | 35 | –
3 | CC(=O)N[C@H](Cc1ccc2ccccc2c1)C(=O)N[C@@H](CCCNC(=N)N)C(=O)N[C@H](Cc1ccc2ccccc2c1)C(=O)N[C@H](Cc1ccc2ccccc2c1)C(N)=O [Peptide 14, Ac-DNal(2’)-Arg-DNal(2’)-DNal(2’)-NH2] (Ac-[d2Nal]R[d2Nal][d2Nal]-NH2) | 50 | mMC1R partial agonist percentage of receptor activation relative to NDP-MSH (mMC1R): 85 % NDP; mMC5R percent maximal stimulatory response (compared to NDP-MSH) (mMC5R): 20% @100μM
4 | CC(=O)N[C@H](Cc1ccc2ccccc2c1)C(=O)N[C@@H](CCCNC(=N)N)C(=O)N[C@@H](Cc1c[nH]c2ccccc12)C(=O)N[C@H](Cc1ccc2ccccc2c1)C(N)=O [Peptide 17, Ac-DNal(2’)-Arg-Trp-DNal(2’)-NH2] (Ac-[d2Nal]RW[d2Nal]-NH2) | 40 | –
5 | CC(=O)N[C@H](Cc1ccc2ccccc2c1)C(=O)N[C@@H](CCCNC(=N)N)C(=O)N[C@H](Cc1ccc(I)cc1)C(=O)N[C@H](CCCCN)C(N)=O [Peptide 19, Ac-DNal(2’)-Arg-DPhe(pI)-DLys-NH2] | – | mMC1R agonist activity in words (mMC1R): full agonist activity
6 | CC(=O)N[C@H](Cc1ccc2ccccc2c1)C(=O)N[C@@H](CCCNC(=N)N)C(=O)N[C@H](Cc1ccc(I)cc1)C(=O)N[C@@H](CCCNC(=N)N)C(N)=O [Peptide 21, Ac-DNal(2’)-Arg-DPhe(pI)-Arg-NH2] (Ac-[d2Nal]R[dPhe(4-I)]R-NH2) | – | mMC1R agonist activity in words (mMC1R): full agonist activity
7 | CC(=O)N[C@H](Cc1ccc2ccccc2c1)C(=O)N[C@@H](CCCNC(=N)N)C(=O)N[C@@H](Cc1ccc2ccccc2c1)C(=O)N[C@H](CCCCN)C(N)=O [Peptide 22, Ac-DNal(2’)-Arg-Nal(2’)-DLys-NH2] (Ac-[d2Nal]R[2Nal][dK]-NH2) | – | mMC1R partial agonist percentage of receptor activation relative to NDP-MSH (mMC1R): 50 % NDP
8 | CC(=O)N[C@H](Cc1ccc2ccccc2c1)C(=O)N[C@@H](CCCNC(=N)N)C(=O)N[C@@H](Cc1ccc2ccccc2c1)C(=O)N[C@H](Cc1ccc2ccccc2c1)C(N)=O [Peptide 23, Ac-DNal(2’)-Arg-Nal(2’)-DNal(2’)-NH2] (Ac-[d2Nal]R[2Nal][d2Nal]-NH2) | 30 | mMC5R percent maximal stimulatory response (compared to NDP-MSH) (mMC5R): 25% @100μM
9 | CC(=O)N[C@H](Cc1ccc(I)cc1)C(=O)N[C@H](Cc1ccc2ccccc2c1)C(=O)N[C@@H](Cc1c[nH]c2ccccc12)C(=O)N[C@@H](CCCNC(=N)N)C(N)=O [Peptide 30, Ac-DPhe(pI)-DNal(2’)-Trp-Arg-NH2] | – | mMC5R EC50 (mMC5R; agonist, >100,000 = no agonist activity up to 100 μM): inactive
10 | CC(=O)N[C@H](Cc1ccc(I)cc1)C(=O)N[C@H](Cc1ccc2ccccc2c1)C(=O)N[C@@H](Cc1ccc2ccccc2c1)C(=O)N[C@H](CCCCN)C(N)=O [Peptide 34, Ac-DPhe(pI)-DNal(2’)-Nal(2’)-DLys-NH2] (Ac-[dPhe(4-I)][d2Nal][2Nal][dK]-NH2) | 20 | –
11 | CC(=O)N[C@H](Cc1ccc(I)cc1)C(=O)N[C@@H](CCCNC(=N)N)C(=O)N[C@H](Cc1ccc2ccccc2c1)C(=O)N[C@H](Cc1ccc2ccccc2c1)C(N)=O [Peptide 38, Ac-DPhe(pI)-Arg-DNal(2’)-DNal(2’)-NH2] (Ac-[dPhe(4-I)]R[d2Nal][d2Nal]-NH2) | 45 | mMC5R percent maximal stimulatory response (compared to NDP-MSH) (mMC5R): 20% @100μM
12 | CC(=O)N[C@H](Cc1ccc(I)cc1)C(=O)N[C@@H](CCCNC(=N)N)C(=O)N[C@@H](Cc1c[nH]c2ccccc12)C(=O)N[C@H](Cc1ccc2ccccc2c1)C(N)=O [Peptide 41, Ac-DPhe(pI)-Arg-Trp-DNal(2’)-NH2] (Ac-[dPhe(4-I)]RW[d2Nal]-NH2) | 25 | –
